In US12195482B1 (Arcus Biosciences, Inc., priority 2022, dated 2025):
pIC50: −log10 of the molar value.

Columns and labels:
Axl = molecular target: T1, Axl (Homo sapiens, UniProt P30530); assay: Biochemical potency, HTRF KinEASE-TK kinase assay; design: purchased Invitrogen; settings: 5 nM AXL, 700 μM ATP
T1 sequence (P30530 26-894): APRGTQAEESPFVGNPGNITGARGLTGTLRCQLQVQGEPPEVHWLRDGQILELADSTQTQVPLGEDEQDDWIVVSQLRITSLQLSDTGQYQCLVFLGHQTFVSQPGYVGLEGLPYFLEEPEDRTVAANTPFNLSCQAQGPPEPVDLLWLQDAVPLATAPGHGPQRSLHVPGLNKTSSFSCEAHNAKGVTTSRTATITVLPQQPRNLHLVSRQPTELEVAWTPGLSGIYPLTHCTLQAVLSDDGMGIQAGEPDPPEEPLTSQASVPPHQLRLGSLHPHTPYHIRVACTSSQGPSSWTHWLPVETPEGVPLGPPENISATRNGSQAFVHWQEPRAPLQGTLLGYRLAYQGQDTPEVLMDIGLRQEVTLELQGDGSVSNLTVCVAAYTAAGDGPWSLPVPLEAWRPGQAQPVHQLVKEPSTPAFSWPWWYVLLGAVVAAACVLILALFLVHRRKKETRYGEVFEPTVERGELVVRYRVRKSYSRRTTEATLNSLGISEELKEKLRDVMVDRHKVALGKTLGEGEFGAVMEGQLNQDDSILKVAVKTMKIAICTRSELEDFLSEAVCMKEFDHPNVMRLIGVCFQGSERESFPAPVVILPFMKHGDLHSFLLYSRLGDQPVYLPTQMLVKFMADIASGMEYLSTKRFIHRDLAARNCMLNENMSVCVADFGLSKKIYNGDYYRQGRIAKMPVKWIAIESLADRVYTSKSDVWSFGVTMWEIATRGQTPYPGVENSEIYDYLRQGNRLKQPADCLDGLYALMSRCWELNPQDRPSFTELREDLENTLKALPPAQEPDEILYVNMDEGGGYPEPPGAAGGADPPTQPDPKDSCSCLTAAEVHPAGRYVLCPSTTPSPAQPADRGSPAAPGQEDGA
Experimental: Measurement of Biochemical Compound Potency of Axl Inhibitors
Purified recombinant human AXL, TYRO3 and MER proteins were purchased from Invitrogen™. 10 nM AXL, 2 nM TYRO3 or MER were incubated with varying concentrations of compounds in 50 mM HEPES, pH 7.4, 10 mM MgCl2, 0.01% BSA, 1 mM DTT and 2% DMSO in a total volume of 20 μl in a 384-well microplate (Corning™ #3640) at RT for 1 h. The AXL, TYRO3 and MER enzymatic reaction was initiated by transferring 10 μl of enzyme and compound mixture into 10 μl of 1.6 μM TK Substrate-biotin (HTRF® KinEASE-TK kit, Cisbio) and 1400 μM ATP pre-incubated in 50 mM HEPES, pH 7.4, 10 mM MgCl2, 0.01% BSA, 1 mM DTT in a 384-well microplate (Corning™ #3640) at RT, giving the final reaction conditions: 5 nM AXL, 1 nM TYRO3 or MER, 800 nM TK Substrate-biotin and 700 μM ATP in 50 mM HEPES, pH 7.4, 10 mM MgCl2, 0.01% BSA, 1 mM DTT and 1% DMSO with varying concentrations of compounds. Following 2 h incubation at RT, the AXL, TYRO3 and MER enzymatic reaction was stopped by transfer of 10 μl of reaction into 10 μl of detection mix (400 nM Streptavidin-XL665, 200-fold dilution TK Antibody-Cryptate and detection buffer, HTRF® KinEASE-TK kit, Cisbio) in a white 384-well microplate (Perkin Elmer, OptiPlate 384). After 1 h incubation at RT, the plate was put into a plate reader (Evision) to read at 665/620 nm (acceptor/donor) for HTRF. The value of the DMSO blank (MIN inhibition=100% activity) was used as a negative control. The positive control was established by adding 5 μl of enzyme and DMSO mixture into 10 μl of detection mix followed by addition of 5 μl of TK Substrate-biotin and ATP mixture (MAX inhibition=0% activity). To calculate the percent activity, Equation 1 was used. Ratio665/620 is the value at a given compound concentration: […]

p-AXL = molecular target: T2, p-AXL (Homo sapiens, UniProt P30530); assay: Axl phosphorylation inhibition ELISA in HEK293T cells transfected with NanoLuc-tagged AXL; type: cell-based; settings: 1 h compound incubation, media (OptiMEM)
T2 construct: expressed in transfected cells; host or cells: HEK293T
T2 sequence (P30530 26-894): T1 sequence (P30530 26-894)
Experimental: [formula] Measurement of Axl Phosphorylation Inhibition
The dose-response assays were performed in S-Bio PrimeSurface® 3D culture: Ultra-low Attachment Plates: 384 well, U bottom (#MS-9384UZ) containing 400 nL of 22 serial 2-fold compound dilutions using Bravo and Echo. ELISA assay was performed on Pierce™ streptavidin coated high capacity 384-well white plates (Thermofisher Cat #15505). The plates were coated overnight at 4° C. with 50 μl/well of biotinlyated phospho-tyrosine mouse mAb (Cell Signaling Technology, 9417s).
HEK293T cells were grown in DMEM containing 10% FBS, 1% Pen/Strep, 1% G-Max. A day before the assay, cells were transiently transfected with 6.8 μg of NanoLuc-tagged AXL plasmid DNA and 8 μg of carrier DNA using FuGENE® HD Transfection Reagent (Promega) according to manufacturer's instructions. On the day of the assay, transfected cells were harvested and resuspended in OptiMEM. 70,000 cells/well were added to the compounds containing assay plates. After a gentle mix and a short spin, the plates were incubated at 37° C. After 1 h, the cells were lysed followed by a brief centrifugation and 30 min of shaking at 300 rpm. Meanwhile, the antibody coated plates were brought to room temperature and then were washed ten times in PBS with 0.05% Tween 20 (ELISA-wash buffer). 50 μl/well of cell lysate was transferred to the ELISA plates and shaken for 2 hours. After washing again with the ELISA wash buffer, the samples were diluted with 25 μl of PBS. The captured NanoLuc tagged p-AXL was detected using Nano-Glo® Luciferase Assay System (Promega) and manufacturer's instruction. The luminescence signal was measured using Envision plate reader. IC50 values were determined by fitting the data to a standard 4-parameter logistic equation.

SMILES | pIC50 (Axl) | pIC50 (p-AXL)
Cc1ccc(C)c(-c2ccc(-c3n[nH]c4ncc(-c5ccc6c(c5)CC[C@@H](N5CCCC5)CC6)cc34)cc2)n1 [Example 139, 3,6-Dimethyl-2-(4-{5-[(7S)-7-(pyrrolidin-1-yl)-6,7,8,9-tetrahydro-5H-benzo[7]annulen-2-yl]-1H-pyrazolo[3,4-b]pyridin-3-yl}phenyl)pyridine] | > 7.00 | > 7.00
Cc1cnc(C)c(-c2ccc(-c3c[nH]c4ncc(-c5ccc6c(c5)CC[C@@H](N5C7COCC5C7)CC6)cc34)nc2)n1 [Example 69, 6-[(7S)-2-{3-[5-(3,6-Dimethylpyrazin-2-yl)pyridin-2-yl]-1H-pyrrolo[2,3-b]pyridin-5-yl}-6,7,8,9-tetrahydro-5H-benzo[7]annulen-7-yl]-3-oxa 6-azabicyclo[3.1.1]heptane] | > 7.00 | 6.00 to 7.00
Cc1cccnc1-c1ccc(-c2n[nH]c3ncc(-c4ccc5c(c4)CCN(C4CCCC4)CC5)cc23)cc1 [Example 24, 3-Cyclopentyl-7-{3-[4-(3-methylpyridin-2-yl)phenyl]-1H-pyrazolo[3,4-b]pyridin-5-yl}-2,3,4,5-tetrahydro-1H-3-benzazepine] | > 7.00 | 6.00 to 7.00
Cc1cccnc1-n1cc(-c2c[nH]c3ncc(-c4ccc5c(c4)CC[C@@H](N4C6COCC4C6)CC5)cc23)cn1 [Example 27, 6-[(7S)-2-{3-[1-(3-Methylpyridin-2-yl)-1H-pyrazol-4-yl]-1H-pyrrolo[2,3-b]pyridin-5-yl}-6,7,8,9-tetrahydro-5H-benzo[7]annulen-7-yl]-3-oxa-6-azabicyclo[3.1.1]heptane] | > 7.00 | > 7.00
Cc1ccc(C#N)nc1-c1ccc(-c2c[nH]c3ncc(-c4ccc5c(c4)CC[C@@H](N4C6COCC4C6)CC5)cc23)cc1 [Example 75, 5-Methyl-6-(4-{5-[(7S)-7-{3-oxa-6-azabicyclo[3.1.1]heptan-6-yl}-6,7,8,9-tetrahydro-5H-benzo[7]annulen-2-yl]-1H-pyrrolo[2,3-b]pyridin-3-yl}phenyl)pyridine-2-carbonitrile] | > 7.00 | > 7.00
Cc1ccc(C(F)(F)F)nc1-c1ccc(-c2c[nH]c3ncc(-c4ccc5c(c4)CC[C@@H](N4C6COC[C@H]4C6)CC5)cc23)cc1 [Example 146, (1R)-6-[(7S)-2-(3-{4-[3-Methyl-6-(trifluoromethyl)pyridin-2-yl]phenyl}-1H-pyrrolo[2,3-b]pyridin-5-yl)-6,7,8,9-tetrahydro-5H-benzo[7]annulen-7-yl]-3-oxa-6-azabicyclo[3.1.1]heptane] | > 7.00 | 6.00 to 7.00
Cc1cccnc1-c1ccc(-c2n[nH]c3ncc(-c4ccc5c(c4)CC(N4CCCC4)CC5)cc23)cc1 (stereo not shown) [Example 67, 3-Methyl-2-(4-{5-[7-(pyrrolidin-1-yl)-5,6,7,8-tetrahydronaphthalen-2-yl]-1H-pyrazolo[3,4-b]pyridin-3-yl}phenyl)pyridine] | > 7.00 | 6.00 to 7.00
Cc1cnc(C)c(-c2ccc(-c3n[nH]c4ncc(-c5ccc6c(c5)CC[C@@](C)(N5CCC[C@H]5C)CC6)cc34)nc2)n1 [Example 61, 2,5-Dimethyl-3-(6-{5-[(7S)-7-methyl-7-[(2R)-2-methylpyrrolidin-1-yl]-6,7,8,9-tetrahydro-5H-benzo[7]annulen-2-yl]-1H-pyrazolo[3,4-b]pyridin-3-yl}pyridin-3-yl)pyrazine] | > 7.00 | > 7.00
Cc1cccnc1-c1nnc(-c2n[nH]c3ncc(-c4ccc5c(c4)CC[C@@H](N4C6COCC4C6)CC5)cc23)o1 [Example 25, 6-[(7S)-2-{3-[5-(3-Methylpyridin-2-yl)-1,3,4-oxadiazol-2-yl]-1H-pyrazolo[3,4-b]pyridin-5-yl}-6,7,8,9-tetrahydro-5H-benzo[7]annulen-7-yl]-3-oxa-6-azabicyclo[3.1.1]heptane] | > 7.00 | > 7.00
Cc1cc(F)cnc1-c1ccc(-c2c[nH]c3ncc(-c4ccc5c(c4)CC[C@@](C)(N4CCC[C@H]4C)CC5)cc23)cc1 [Example 34, 3-[4-(5-Fluoro-3-methylpyridin-2-yl)phenyl]-5-[(7S)-7-methyl-7-[(2R)-2-methylpyrrolidin-1-yl]-5,6,8,9-tetrahydrobenzo[7]annulen-3-yl]-1H-pyrrolo[2,3-b]pyridine] | > 7.00 | > 7.00
COC[C@H]1CCN([C@H]2CCc3ccc(-c4cnc5[nH]cc(-c6ccc(-c7nc(C)cnc7C)cc6)c5c4)cc3CC2)C1 [Example 63, 3-(4-{5-[(7S)-7-[(3S)-3-(Methoxymethyl)pyrrolidin-1-yl]-6,7,8,9-tetrahydro-5H-benzo[7]annulen-2-yl]-1H-pyrrolo[2,3-b]pyridin-3-yl}phenyl)-2,5-dimethylpyrazine] | > 7.00 | > 7.00
Cc1ccc(C)c(-c2ccc(-c3n[nH]c4ncc(-c5ccc6c(c5)CC[C@@H](N5C7COC[C@H]5C7)CC6)cc34)c(F)c2)n1 [Example 143, (1R)-6-[(7S)-2-{3-[4-(3,6-Dimethylpyridin-2-yl)-2-fluorophenyl]-1H-pyrazolo[3,4-b]pyridin-5-yl}-6,7,8,9-tetrahydro-5H-benzo[7]annulen-7-yl]-3-oxa-6-azabicyclo[3.1.1]heptane] | > 7.00 | 6.00 to 7.00
Cc1cccnc1-c1ccnc(-c2c[nH]c3ncc(-c4ccc5c(c4)CC[C@@H](N4C6COCC4C6)CC5)cc23)c1 [Example 83, 3-Methyl-2′-{5-[(7S)-7-{3-oxa-6-azabicyclo[3.1.1]heptan-6-yl}-6,7,8,9-tetrahydro-5H-benzo[7]annulen-2-yl]-1H-pyrrolo[2,3-b]pyridin-3-yl}-2,4′-bipyridine] | > 7.00 | > 7.00
Cc1ccc(C(N)=O)nc1-c1ccc(-c2c[nH]c3ncc(-c4ccc5c(c4)CC[C@@H](N4C6COCC4C6)CC5)cc23)cc1 [Example 76, 5-Methyl-6-(4-{5-[(7S)-7-{3-oxa-6-azabicyclo[3.1.1]heptan-6-yl}-6,7,8,9-tetrahydro-5H-benzo[7]annulen-2-yl]-1H-pyrrolo[2,3-b]pyridin-3-yl}phenyl)pyridine-2-carboxamide] | > 7.00 | > 7.00
